Assay results as given in US12226449B2, “Materials and methods for the prevention of rheumatoid arthritis” (The University of Toledo, priority 2018, dated 2025).
Entries after “also recorded” stand apart in the source; their conditions may differ.

What was measured:
Type in all cases: cell-based
human PBMCs [1] = assay: ELISPOT assay of IFN-γ and IL-17 secreting cells; conditions: for effect on 14-3-3ζ-induced IFN-γ secreting cells / effect on 14-3-3ζ-induced IL-17 secreting cells: drug present during 14-3-3ζ incubation
Description: Cells were plated with 14-3-3ζ protein in a 96-well plate for 14 days at 37° C. in complete RPMI culture medium. Phytohemagglutinin (PHA) was used as a positive control. 10 μl MTT was added at a concentration of 5 mg/mL, and the plate was further incubated at 37° C. in the dark for 3 hours. Supernatant was then removed, and 100 μL DMSO was added for another hour before reading the absorbance at 570 nm using FLUOstar Omega microplate reader (BMG Labtech). For T cell differentiation, PBMCs were incubated with 1 μg/ml of 14-3-3ζ for 7 days followed by either the cellular staining for FACS analysis or ELISPOT as per manufacture's protocol. For testing the effect of drugs, prednisolone, prednisone, as well as TJU103, were used at 1 μg/ml concentration and cyclophosphamide was used at 0.1 μg/ml concentration.
The protocol was adopted from Immunospot kit from Cellular Technology Limited. In short, PBMCs incubated with 14-3-3ζ for 7 days were plated on the antibody coated ELISPOT plates. About 100,000 cells/well were added and incubated for 2 days at 37° C. followed by the developing protocol. Plates were read with a Quantihub ELISPOT plate reader and manually counted.

human PBMCs [2] = assay: ELISA of secreted (accumulated) cytokines of PBMCs; conditions: drug present during 14-3-3ζ incubation
human PBMCs [3] = assay: T cell polarization of PBMCs by flow cytometry (CD4, CD366, IL-17, CD8, CD69); conditions: drug present during 14-3-3ζ incubation, prednisolone, prednisone, TJU103 1 μg/ml, cyclophosphamide 0.1 μg/ml, BV02 5 nM
Description: Cells were plated with 14-3-3ζ protein in a 96-well plate for 14 days at 37° C. in complete RPMI culture medium. Phytohemagglutinin (PHA) was used as a positive control. 10 μl MTT was added at a concentration of 5 mg/mL, and the plate was further incubated at 37° C. in the dark for 3 hours. Supernatant was then removed, and 100 μL DMSO was added for another hour before reading the absorbance at 570 nm using FLUOstar Omega microplate reader (BMG Labtech). For T cell differentiation, PBMCs were incubated with 1 μg/ml of 14-3-3ζ for 7 days followed by either the cellular staining for FACS analysis or ELISPOT as per manufacture's protocol. […] PBMCs incubated with 14-3-3ζ for 7 days at 37° C. were fixed in 2% paraformaldehyde for an hour, and washed with PBS. […] For surface staining, cells were stained in 50 μL PBS with 5 μl per million cells antibody for 30 minutes in the dark on ice. For intracellular staining, cells were permeabilized with Triton for 10-15 min. After staining, cells were washed with PBS and resuspended in 1 mL PBS for analysis. The following antibodies from Biolegend Inc. were used: […] Cells were sorted at FACSCanto II system (BD Biosciences) and analyzed using FlowJo software (version 10). A gate was created around an initial population of cells in the FSC-SSC plot, and this population of cells was further analyzed for CD4, CD366, and IL-17 expression. Unstained and isotype labelled cells were used as a control for setting the gates.

human PBMCs [4] = assay: PBMC proliferation, MTT assay; conditions: for effect on 14-3-3ζ-induced PBMC proliferation: inhibitor present during 14-3-3ζ incubation, BV02 5 nM, TJU103 1 μg/ml
Description: Blood from healthy donors was collected as per the approved IRB protocol. The protocol for isolation of PBMCs was previously reported. In short, whole blood was diluted with an equal volume of RPMI before layering on Ficoll-Paque PLUS in a 15 mL tube. Tubes were then centrifuged for 25 minutes with the brakes off at 950 g. PBMCs were collected from the layer between the plasma and Ficoll liquid. PBMCs were then washed twice with RPMI, with 7 min spins at 350×g to pellet the cells. Finally, cells were resuspended in complete RPMI before counting and plating. […] Phytohemagglutinin (PHA) was used as a positive control. 10 μl MTT was added at a concentration of 5 mg/mL, and the plate was further incubated at 37° C. in the dark for 3 hours. Supernatant was then removed, and 100 μL DMSO was added for another hour before reading the absorbance at 570 nm using FLUOstar Omega microplate reader (BMG Labtech). For T cell differentiation, PBMCs were incubated with 1 μg/ml of 14-3-3ζ for 7 days followed by either the cellular staining for FACS analysis or ELISPOT as per manufacture's protocol.

human PBMCs [5] = assay: ELISPOT assay of IFN-γ and IL-17 secreting cells; conditions: PBMC treated with protein for 7 d

C[C@]12C=CC(=O)C=C1CC[C@@H]1[C@@H]2C(=O)C[C@@]2(C)[C@H]1CC[C@]2(O)C(=O)CO [prednisone]
effect on 14-3-3ζ-induced IFN-γ secreting cells (human PBMCs [1]): no effect
effect on 14-3-3ζ-induced IL-17 secreting cells (human PBMCs [1]): no effect

C[C@]12C=CC(=O)C=C1CC[C@@H]1[C@@H]2[C@@H](O)C[C@@]2(C)[C@H]1CC[C@]2(O)C(=O)CO [prednisolone]
effect on 14-3-3ζ-induced accumulated IL-17 level (human PBMCs [2]): Significant suppression; also recorded: reproduced effect on accumulated IL-17
effect on IL-6 level (human PBMCs [2]): bare minimum effect
effect on 14-3-3ζ-induced CD366 positive CD4 cells (Th1) (human PBMCs [3]): mild effect
effect on 14-3-3ζ-induced IL-17 positive CD4 cells (Th17) (human PBMCs [3]): significant suppression; also recorded: strongly inhibited
effect on 14-3-3ζ-induced CD366 positive CD4 cells (Th1) (human PBMCs [3]; listed as Prednisolone): suppressed
effect on 14-3-3ζ-induced IL-17 positive CD4 cells (Th17) (human PBMCs [3]; listed as Prednisolone): suppressed
effect on 14-3-3ζ-induced IFN-γ secreting cells (human PBMCs [1]): Significant suppression; also recorded: strong inhibition
effect on 14-3-3ζ-induced IL-17 secreting cells (human PBMCs [1]): significant suppression; also recorded: strong inhibition

Cc1c(N2C(=O)c3ccc(C(=O)O)cc3C2=O)c(=O)n(-c2ccccc2)n1C [BV02]
effect on 14-3-3ζ-induced CD366 positive CD4 cells (Th1) (human PBMCs [3]): no effect; also recorded: did not affect
effect on 14-3-3ζ-induced IL-17 positive CD4 cells (Th17) (human PBMCs [3]): no effect; also recorded: did not affect
effect on PHA induced PBMC proliferation (human PBMCs [4]; BV02 present): no suppression; also recorded: did not affect
effect on 14-3-3ζ-induced PBMC proliferation (human PBMCs [4]): no effect; also recorded: did not show any difference
effect on PHA induced IFN-γ secreting cells (human PBMCs [1]; BV02 present): did not affect
effect on PHA induced IL-17 secretion (human PBMCs [1]; BV02 present): partial inhibition
effect on 14-3-3ζ-induced IFN-γ secreting cells (human PBMCs [1]): did not show an increase; also recorded: significant inhibition
effect on 14-3-3ζ-induced IL-17 secreting cells (human PBMCs [1]): did not show an increase; also recorded: significant inhibition

O=P1(N(CCCl)CCCl)NCCCO1 (stereo not drawn) [cyclophosphamide]
effect on 14-3-3ζ-induced CD366 positive CD4 cells (Th1) (human PBMCs [3]): significant suppression; also recorded: mild inhibition
effect on 14-3-3ζ-induced IL-17 positive CD4 cells (Th17) (human PBMCs [3]): only milder inhibition; also recorded: no sufficient inhibition; also recorded: no effect
effect on 14-3-3ζ-induced IFN-γ secreting cells (human PBMCs [1]): mild inhibition; also recorded: impacted only IFN-γ producing cells

O=C(NN=Cc1c[nH]c2ccccc12)c1ccncc1 [TJU103]
effect on 14-3-3ζ-induced accumulated IL-17 level (human PBMCs [2]): no difference
effect on IL-6 level (human PBMCs [2]): no difference
effect on 14-3-3ζ-induced accumulated IL-17 level (human PBMCs [2]; listed as TJU131): no significant difference
effect on 14-3-3ζ-induced CD366 positive CD4 cells (Th1) (human PBMCs [3]): suppressed
effect on 14-3-3ζ-induced IL-17 positive CD4 cells (Th17) (human PBMCs [3]): suppressed
effect on 14-3-3ζ-induced PBMC proliferation (human PBMCs [4]): did not inhibit
effect on 14-3-3ζ-induced IFN-γ secreting cells (human PBMCs [1]): stronger decrease; also recorded: suppressed; also recorded: Inhibition
effect on 14-3-3ζ-induced IL-17 secreting cells (human PBMCs [1]): less sensitive to inhibition
effect on 14-3-3ζ-induced IFN-γ secreting cells (human PBMCs [1]; listed as TJU131): mild suppression
effect on 14-3-3ζ-induced IL-17 secreting cells (human PBMCs [1]; listed as TJU131): mild suppression

B1: 14-3-3ε: another 14-3-3 isoform, used for specificity and comparison (protein, UniProt P62258 1-255, looked up)
14-3-3 protein epsilon: MDDREDLVYQAKLAEQAERYDEMVESMKKVAGMDVELTVEERNLLSVAYKNVIGARRASWRIISSIEQKEENKGGEDKLKMIREYRQMVETELKLICCDILDVLDKHLIPAANTGESKVFYYKMKGDYHRYLAEFATGNDRKEAAENSLVAYKAASDIAMTELPPTHPIRLGLALNFSVFYYEILNSPDRACRLAKAAFDDAIAELDTLSEESYKDSTLIMQLLRDNLTLWTSDMQGDGEEQNKEALQDVEDENQ
number of IFN-γ and IL-17 secreting cells (human PBMCs [5]; listed as 14-3-3e): not replaced
number of IFN-γ and IL-17 secreting cells (human PBMCs [5]; listed as 14-3-3 epsilon): no significant effect
